Source: article PMC12933331, “A Cryptic Pocket Allosterically Modulates Oligosaccharide Binding to DC-SIGN” (JACS Au, 2026)
Numbering of substitutions follows the chain as printed.

Columns and labels:
Test in all cases: 1H-15N HSQC NMR titration (CSP fitting)
Format in all cases: binding
[1] = molecular target: T1, DC-SIGN CRD wildtype (Homo sapiens, UniProt Q9NNX6)
T1 construct: acids 253-404 of DC-SIGN; His-tag (N); made in house
T1 sequence (Q9NNX6 253-404): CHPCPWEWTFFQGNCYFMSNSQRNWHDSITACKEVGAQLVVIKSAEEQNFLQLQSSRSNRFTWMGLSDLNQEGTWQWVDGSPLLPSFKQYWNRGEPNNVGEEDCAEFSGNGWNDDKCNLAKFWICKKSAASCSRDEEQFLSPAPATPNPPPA
Experimental: (§1) 1H-15N HSQC NMR. 1H-15N HSQC NMR spectra were collected with 256 increments in the nitrogen and 24 scans per increment and 2048 points in the direct dimension. The relaxation delay d1 was set to 1.0 s. The W5 WATERGATE pulse sequence was used for solvent suppression.3, 4 Experiments were performed at a CRD concentration of 200 μM in 20 mM MES, 40 mM NaCl, 10 mM CaCl2 (pH 6.0) supplemented with 10% D 2O and, if applicable, varying concentrations of ligands. Samples of apo DC -SIGN CRD were prepared as described for 1H-13C HSQC NMR experiments. A previously published resonance assignment of DC-SIGN CRD was transferred to the nearest neighbor in a reference spectrum recorded without ligand.5 Unassigned, overlapping or disappearing peaks were not assigned.
(§2) CSPs induced by mutations or ligands were calculated as previously described according to […]
(§3) The empirical weighing factor a was set to 0.15 for all calculations.
(§4) Dissociation constants (K Ds) were determined in titration experiments at five ligand concentratio ns […]
(§5) in the fast exchange regime were used for the fitting procedure via equation 4 in a global two - […]
(§6) with CSP max corresponding to the CSP values upon saturation and the bound protein fraction p b […]
(§7) CHESPA was performed as previously described .7 The chemical shift vector between apo and holo wildtype DC -SIGN CRD was used as reference perturbation to calculate the vector product to […]

[2] = molecular target: T2, DC-SIGN CRD M270F (Homo sapiens, UniProt Q9NNX6, M270F)
T2 construct: acids 253-404 of DC-SIGN; His-tag (N); made in house
T2 sequence (Q9NNX6 253-404 M270F): T1 sequence (Q9NNX6 253-404) with M18F
Experimental: as §1, §2, §3, §4, §5, §6, §7

[3] = molecular target: T3, DC-SIGN CRD T314A (Homo sapiens, UniProt Q9NNX6, T314A)
T3 construct: acids 253-404 of DC-SIGN; His-tag (N); made in house
T3 sequence (Q9NNX6 253-404 T314A): T1 sequence (Q9NNX6 253-404) with T62A
Experimental: as §1, §2, §3, §4, §5, §6, §7

[4] = molecular target: T4, DC-SIGN CRD I376V (Homo sapiens, UniProt Q9NNX6, I376V)
T4 construct: acids 253-404 of DC-SIGN; His-tag (N); made in house
T4 sequence (Q9NNX6 253-404 I376V limits assumed): T1 sequence (Q9NNX6 253-404) with I124V
Experimental: as §1, §2, §3, §4, §5, §6, §7

[5] = molecular target: T5, DC-SIGN CRD F359L (Homo sapiens, UniProt Q9NNX6, F359L)
T5 construct: acids 253-404 of DC-SIGN; His-tag (N); made in house
T5 sequence (Q9NNX6 253-404 F359L): T1 sequence (Q9NNX6 253-404) with F107L
Experimental: as §1, §2, §3, §4, §5, §6, §7

[6] = molecular target: T6, DC-SIGN CRD Q323A (Homo sapiens, UniProt Q9NNX6, Q323A)
T6 construct: acids 253-404 of DC-SIGN; His-tag (N); made in house
T6 sequence (Q9NNX6 253-404 Q323A limits assumed): T1 sequence (Q9NNX6 253-404) with Q71A
Experimental: as §1, §2, §3, §4, §5, §6, §7

[7] = molecular target: T7, DC-SIGN CRD E358A (Homo sapiens, UniProt Q9NNX6, E358A)
T7 construct: acids 253-404 of DC-SIGN; His-tag (N); made in house
T7 sequence (Q9NNX6 253-404 E358A): T1 sequence (Q9NNX6 253-404) with E106A
Experimental: as §1, §2, §3, §4, §5, §6, §7

[8] = molecular target: T8, DC-SIGN CRD F313A (Homo sapiens, UniProt Q9NNX6, F313A)
T8 construct: acids 253-404 of DC-SIGN; His-tag (N); made in house
T8 sequence (Q9NNX6 253-404 F313A): T1 sequence (Q9NNX6 253-404) with F61A
Experimental: as §1, §2, §3, §4, §5, §6, §7

[9] = molecular target: T9, DC-SIGN CRD W364F (Homo sapiens, UniProt Q9NNX6, W364F)
T9 construct: acids 253-404 of DC-SIGN; His-tag (N); made in house
T9 sequence (Q9NNX6 253-404 W364F): T1 sequence (Q9NNX6 253-404) with W112F
Experimental: as §1, §2, §3, §4, §5, §6, §7

Kd [1]: 3.3 ± 0.3 mM
Kd [2]: 2.9 ± 0.4 mM
Kd [3]: 3.9 ± 0.1 mM
Kd [4]: 3.4 ± 0.2 mM
Kd [5]: 8.2 ± 0.8 mM
Kd [6]: 3.5 ± 0.2 mM
Kd [7]: 51.1 ± 4.9 mM
Kd [8]: 6 ± 0.5 mM
Kd [9]: 5 ± 0.9 mM
Structure (SMILES): OC[C@H]1OC(O)[C@@H](O)[C@@H](O)[C@@H]1O (stereo partly drawn) [mannose]
